Test results taken from patent publication US20200054657A1, “Compositions of Matter and Methoods to Treat Cancer” (priority 2018, published 2020).
Entries after “also recorded” stand apart in the source; their conditions may differ.

Key:
CCRF-CEM = experiment: viability of CCRF-CEM acute leukemia cells; assay type: cell-based; settings: Homo sapiens, Andrographolide (50 μM) alone, read-out: cell viability
Procedure: (§1) FIG. 3. […] Andrographolide (50 μM) alone reduced cell viability to 54.3±2.8% in CCRF-CEM cells and to 68.5±1.4%. *** =P<0.001.
(§2) Andrographolide (50 μM) and Frondoside A (between 1 and 3 mM) was assayed for anticancer effects through determining cell viability of the two human, acute leukemia cell lines CCRF-CEM and THP-1. […] Andrographolide (50 μM) alone reduced cell viability to 54.3±2.8% in CCRF-CEM cells and to 68.5±1.4%. (FIG. 3)

THP-1 = experiment: viability of THP-1 acute leukemia cells; assay type: cell-based; settings: Homo sapiens; Andrographolide (50 μM) alone; second cell line not named in the sentence (THP-1)
Procedure: as §1, §2

[1] = tested on: AsPC-1 human pancreatic cancer cells; experiment: viability of AsPC-1 pancreatic cancer cells; assay type: cell-based; settings: for enhancing effect of Andrographolide on the response: in the presence of Andrographolide; for enhancing effect of Andrographolide on the response / reduction in viability: AsPC-1 (FIG. 6); for comparison of effects on cell viability / reduction in viability: single agents; for comparison of effects on cell viability: AsPC-1 (FIG. 5)
Procedure: Andrographolide at 1 mM and Frondoside A (between 1 mM and 3 mM) were assayed for anticancer effects on the viability of the two human pancreatic cancer cell lines, AsPC-1 and S2013.

[2] = tested on: HT29 human colonic cancer cells; experiment: viability of HT29 colonic cancer cells; settings: HT29 (FIG. 7); for enhancing effect of Andrographolide on the response: in the presence of Andrographolide; for reduction in viability: single agents
PAK-1 kinase = PAK-1 kinase (Homo sapiens, UniProt Q13153); settings: in vitro; cited from earlier work
[3] = mice; cited from earlier work
[4] = lack of change in CBC, liver function tests, body weight; cited from earlier work
[5] = pharmacokinetics study by oral route, LC/MS/MS detection in the blood; assay type: in vivo, humans
Procedure: In a pharmacokinetics and pharmacodynamics study of Frondoside A by oral route in humans, as are known to those skilled in the arts, dosage of 10 milligrams of Frondoside A is delivered in an enteric coated gelatin capsule, as are known to those skilled in the arts and is detected by LC/MS/MS in the blood up to 20 hours later. In a pharmacokinetics and pharmacodynamics study in a huma of Frondoside A by oral route in humans, a dosage of 10 milligrams of Frondoside A in a capsule without the benefit of enteric coated capsule delivery, is not detected by LC/MS/MS in the blood up to 20 hours later.

Chain of PAK-1 kinase (Q13153 whole entry): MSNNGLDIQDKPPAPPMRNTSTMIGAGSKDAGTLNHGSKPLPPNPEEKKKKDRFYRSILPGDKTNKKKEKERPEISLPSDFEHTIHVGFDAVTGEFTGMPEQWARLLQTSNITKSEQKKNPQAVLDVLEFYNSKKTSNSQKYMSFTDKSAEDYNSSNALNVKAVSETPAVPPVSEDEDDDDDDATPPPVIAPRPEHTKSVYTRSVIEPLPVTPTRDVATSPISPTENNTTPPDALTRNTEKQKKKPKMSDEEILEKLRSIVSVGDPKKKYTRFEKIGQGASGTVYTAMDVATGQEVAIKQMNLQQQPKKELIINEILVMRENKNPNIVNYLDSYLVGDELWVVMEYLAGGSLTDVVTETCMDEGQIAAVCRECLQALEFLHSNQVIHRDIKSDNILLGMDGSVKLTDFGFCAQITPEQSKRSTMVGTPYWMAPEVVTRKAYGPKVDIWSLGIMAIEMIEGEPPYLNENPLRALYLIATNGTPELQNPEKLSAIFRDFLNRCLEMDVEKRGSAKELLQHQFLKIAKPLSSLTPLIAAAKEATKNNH

For C=C1CC[C@@H]2[C@](C)(CO)[C@H](O)CC[C@@]2(C)[C@@H]1C/C=C1/C(=O)OC[C@H]1O [Andrographolide], which viability at 50 µM (CCRF-CEM) is on record?
The viability at 50 µM was 54.3 ± 2.8%.

What about the viability at 50 µM (THP-1) of the same compound?
The viability at 50 µM was 68.5 ± 1.4%.

With CCn1c(=O)c(-c2ccc(-c3cncs3)cc2Cl)cc2cnc(Nc3ccc(N4CCN(C)CC4)cc3)nc21 [FRAX597] as the compound, how does the “enhancing effect of Andrographolide on the response” value (from here on “enhancing effect of Andrographolide”) [1] read?
Its value is “no enhancing effect; also recorded: tendency of the reduced effectiveness”.

And the “comparison of effects on cell viability” value [1]?
Its value is “less potent anti-cancer compounds”.

What about the reduction in viability [1] of the same compound?
Its reduction in viability is “dose responsive reduction in viability”.

What about the “enhancing effect of Andrographolide” value [2] of the same compound?
The value was “no enhancing effect; also recorded: tendency of the reduced effectiveness”.

What about the reduction in viability [2] of the same compound?
The reduction in viability was “modest dose responsive reduction in viability”.

Which “enhancing effect of Andrographolide” value [1] does the source give for CCn1c(=O)c(-c2ccc(-c3cncc(C)n3)cc2Cl)cc2cnc(NCCC3CCN(C)CC3)nc21 [FRAX1036] here?
Its value is “no enhancing effect”.

What about the “comparison of effects on cell viability” value [1] of the same compound?
The value was “less potent anti-cancer compounds”.

And the reduction in viability [1]?
The reduction in viability was “dose responsive reduction in viability”.

And the “enhancing effect of Andrographolide” value [2]?
The value was “no enhancing effect”.

And the reduction in viability [2]?
Its reduction in viability is “modest dose responsive reduction in viability”.

Which results are given for CO[C@@H]1[C@@H](O)[C@H](O[C@@H]2[C@@H](O)[C@H](O[C@H]3[C@H](O)[C@@H](O[C@@H]4OC[C@@H](O)[C@H](O)[C@H]4O)[C@H](O[C@H]4[C@H](OC5CC[C@]6(C)[C@H]7CCC89C(=O)O[C@@](C)(CCCC(C)C)C8[C@@H](OC(C)=O)C[C@@]9(C)C7=CC[C@H]6C5(C)C)OC[C@@H](OS(=O)(=O)[O-])[C@@H]4O)O[C@@H]3C)OC[C@H]2O)O[C@H](CO)[C@H]1O.[Na+] (stereo partly drawn) [Frondoside A]?
PAK-1 inhibition (PAK-1 kinase): inhibitor of PAK-1 kinase; LD50 relative to the dose used therapeutically (LD50 in mice): more than 1000 times; LD50 [3]: 9.9 mg/kg; toxic effects at therapeutic doses [4]: does not have toxic effects at therapeutic doses; detected by LC/MS/MS in the blood up to 20 hours later ([5]; 10 milligrams in a capsule without enteric coating, human): not detected; detected by LC/MS/MS in the blood ([5]; 10 milligrams in an enteric coated gelatin capsule, humans): up to 20 hours
